This note sets out measurements from patent US20200261421A1, “HETEROCYCLIC COMPOUNDS AS HIV PROTEASE INHIBITORS” (Merck Sharp & Dohme Corp., priority 2016, published 2020).

For this test, the target named is T1, wild-type HIV-1 protease (Human immunodeficiency virus type 1 group M subtype B, UniProt P04585).
T1 construct: Escherichia coli expressed wild-type HIV-1 protease protein; made in house; host or cells: Escherichia coli
The test can be described thus: Assay for Inhibition of Microbial Expressed HIV Protease. In kind it is biochemical. The conditions noted are these: Escherichia coli expressed wild-type HIV-1 protease, peptide substrate cleavage; mean of at least two independent experiments. The procedure:
Inhibition of Escherichia coli expressed wild-type HIV-1 protease protein was carried out with a peptide substrate [Val-Ser-Gln-Asn-Wnaphtyl)Ala-Pro-Ile-Val]. The inhibitor compound was preincubated with HIV-1 protease enzyme in assay buffer (50 mM sodium acetate, pH 5.5, 100 mM NaCl, and 0.1% BSA) for 30 minutes at room temperature. Peptide substrate was added to 400 μM in a total volume of 20 μL containing 20 pM HIV-1 protease (final) after which the reaction was incubated for 1 hour at 30° C. The reaction was quenched by the addition of formic acid and HIV protease inhibitor indinavir to 0.012% and 150 nM final concentrations, respectively. Product formation was determined after separation of product and substrate on a ZORBAX Eclipse XDB-C18 column (Aligent Technologies, Santa Clara, Calif., USA) connected to an API 4000™ mass spectrometer (AB Sciex, Pte. Ltd., Concord Ontario, Canada) with multiple reaction monitoring (transitions were 644.5/428.9 and 615.4/422.2 (M1/M3) for product and indinavir respectively). The extent of inhibition of the reaction was determined from the peak area of the products. Analysis of the products, independently synthesized, provided quantitation standards and confirmation of the product composition. […] Ic50's refer to the 50% inhibition of the cleavage of a peptide substrate by hiv protease.
Data shown in the table reflects the mean of at least two independent experiments.

SMILES strings stand for the structures.

In general, IC50 refers to the concentration that gives 50% inhibition. Take `CN(Cc1cccc(S(C)(=O)=O)c1)C(=O)c1cccc(CN2C(=N)NC(c3ccc(F)cc3)(c3ccc(F)cc3)C2=O)c1` [Example 60, 3-{[4,4-bis(4-fluorophenyl)-2-imino-5-oxoimidazolidin-1-yl]methyl}-N-methyl-N-[3-(methylsulfonyl)benzyl]benzamide]: the IC50 was determined as 69.2 nM. The result for `CC(C)CCC1(c2ccccc2)NC(=N)N(Cc2cccc(C(=O)N(C)Cc3ccc(C#N)cc3)c2)C1=O` (stereo not shown) [Example 14, N-(4-cyanobenzyl)-3-{[2-imino-4-(3-methylbutyl)-5-oxo-4-phenylimidazolidin-1-yl]methyl}-N-methylbenzamide] reads 7.35 nM; that for `C[C@H](c1ccc(F)cc1)N(C)C(=O)c1cccc(CN2C(=N)NC(c3ccccc3)(c3ccccc3)C2=O)c1` [Example 20, N-[(1R)-1-(4-fluorophenyl)ethyl]-3-[(2-imino-5-oxo-4,4-diphenylimidazolidin-1-yl)methyl]-N-methylbenzamide], 11.7 nM.

On to `N#Cc1ccc(CNC(=O)c2cc(CN3C(=N)NC(c4ccccc4)(c4ccccc4)C3=O)ccc2Cl)cc1` [Example 74, 2-chloro-N-(4-cyanobenzyl)-5-[(2-imino-5-oxo-4,4-diphenylimidazolidin-1-yl)methyl]benzamide], for which the IC50 was 11.4 nM.

Turning to `CC(C)CC[C@]1(c2ccccc2)NC(=N)N([C@H](C)c2cccc(C(=O)N(C)Cc3ccc(F)cc3)c2)C1=O` [Example 15, N-(4-fluorobenzyl)-3-{(1R)-1-[2-imino-4-(3-methylbutyl)-5-oxo-4-phenylimidazolidin-1-yl]ethyl}-N-methylbenzamide], the IC50 was 9.11 nM.

In turn, `CN(Cc1ccccc1S(C)(=O)=O)C(=O)c1cccc(CN2C(=N)NC(c3ccc(F)cc3)(c3ccc(F)cc3)C2=O)c1` [Example 52, 3-{[4,4-bis(4-fluorophenyl)-2-imino-5-oxoimidazolidin-1-yl]methyl}-N-methyl-N-[2-(methylsulfonyl)-benzyl]benzamide] registered an IC50 of 48.3 nM.

On to `CN(Cc1ccccn1)C(=O)c1cccc(CN2C(=N)NC(c3ccc(F)cc3)(c3ccc(F)cc3)C2=O)c1` [Example 59, 3-{[4,4-bis(4-fluorophenyl)-2-imino-5-oxoimidazolidin-1-yl]methyl}-N-methyl-N-(pyridin-2-ylmethyl)benzamide], for which 65.9 nM corresponded to half-maximal inhibition (IC50). For `CN(C)C(=O)c1cccc(CN2C(=N)NC(c3ccccc3)(c3ccc(-c4cccc(C#N)c4)cc3)C2=O)c1` (stereo not shown) [Example 54, 3-{[4-(3'-cyanobiphenyl-4-yl)-2-imino-5-oxo-4-phenylimidazolidin-1-yl]methyl}-N,N-dimethylbenzamide], the IC50 turned out to be 52.2 nM.

With `CN(Cc1ccc(F)cc1)C(=O)c1cncc(CN2C(=N)NC(c3ccc(F)cc3)(c3ccc(F)cc3)C2=O)c1` [Example 80, 5-{[4,4-bis(4-fluorophenyl)-2-imino-5-oxoimidazolidin-1-yl]methyl}-N-(4-fluorobenzyl)-N-methylpyridine-3-carboxamide], the IC50 was 15.4 nM. For `CN(Cc1ccc(Cl)nc1)C(=O)c1cccc(CN2C(=N)NC(c3ccc(F)cc3)(c3ccc(F)cc3)C2=O)c1` [Example 18, 3-{[4,4-bis(4-fluorophenyl)-2-imino-5-oxoimidazolidin-1-yl]methyl}-N-[(6-chloropyridin-3-yl)methyl]-N-methylbenzamide], it took 10.3 nM to reach half-maximal inhibition (IC50). The result for `CN(Cc1ccc(F)cc1)C(=O)c1ccnc(CN2C(=N)NC(c3ccccc3)(c3ccccc3)C2=O)c1` [Example 90, N-(4-fluorobenzyl)-2-[(2-imino-5-oxo-4,4-diphenylimidazolidin-1-yl)methyl]-N-methylpyridine-4-carboxamide] reads 24.6 nM; that for `CC(C)CC1(c2ccccc2)NC(=N)N(Cc2cncc(C(=O)N(C)Cc3ccc(C#N)cc3)c2)C1=O` (stereo not shown) [Example 84, N-(4-cyanobenzyl)-5-{[2-imino-4-(2-methylpropyl)-5-oxo-4-phenylimidazolidin-1-yl]methyl}-N-methylpyridine-3-carboxamide], 93 nM; that for `CN(Cc1ccc(Cl)cn1)C(=O)c1cncc(CN2C(=N)NC(c3ccc(F)cc3)(c3ccc(F)cc3)C2=O)c1` [Example 82, 5-{[4,4-bis(4-fluorophenyl)-2-imino-5-oxoimidazolidin-1-yl]methyl}-N-[(5-chloropyridin-2-yl)methyl]-N-methylpyridine-3-carboxamide], 43.7 nM. In the case of `CC(C)CCC1(c2cccc(-c3cccnc3)c2)NC(=N)N(Cc2cccc(C(=O)N(C)Cc3ccc(C#N)cc3)c2)C1=O` (stereo not shown) [Example 31, N-(4-cyanobenzyl)-3-{[2-imino-4-(3-methylbutyl)-5-oxo-4-(3-pyridin-3-ylphenyl)imidazolidin-1-yl]methyl}-N-methylbenzamide] it was 19 nM; in that of `CN(C)C(=O)c1cccc(CN2C(=N)NC(c3ccccc3)(c3cccc(-c4cccc(C#N)c4)c3)C2=O)c1` (stereo not shown) [Example 51, 3-{[4-(3'-cyanobiphenyl-3-yl)-2-imino-5-oxo-4-phenylimidazolidin-1-yl]methyl}-N,N-dimethylbenzamide], 45.5 nM; in that of `[2H]C([2H])([2H])N(C(=O)c1cccc(CN2C(=N)NC(c3ccc(F)cc3)(c3ccc(F)cc3)C2=O)c1)[C@H](C)c1ccc(F)cc1` [Example 50, 3-{[4,4-bis(4-fluorophenyl)-2-imino-5-oxoimidazolidin-1-yl]methyl}-N-[(1R)-1-(4-fluorophenyl)ethyl]-N(~2~H_3_)methylbenzamide], 45.1 nM. The result for `CC(C)CCC1(c2ccccc2)NC(=N)N(Cc2cncc(C(=O)N(C)Cc3ccc(C#N)cc3)c2)C1=O` (stereo not shown) [Example 83, N-(4-cyanobenzyl)-5-{[2-imino-4-(3-methylbutyl)-5-oxo-4-phenylimidazolidin-1-yl]methyl}-N-methylpyridine-3-carboxamide] reads 50.4 nM; that for `CC(C)CCC1(c2ccccc2)NC(=N)N(Cc2cccc(C(=O)N(C)Cc3ccc(Cl)cc3)c2)C1=O` (stereo not shown) [Example 26, N-(4-chlorobenzyl)-3-{[2-imino-4-(3-methylbutyl)-5-oxo-4-phenylimidazolidin-1-yl]methyl}-N-methylbenzamide], 13.9 nM.

Consider `CN(C)C(=O)c1cccc(C2(c3ccc(F)cc3)NC(=N)N(Cc3cccc(C(=O)N(C)Cc4ccc(Cl)cc4)c3)C2=O)c1` (stereo not shown) [Example 34, 3-[1-{3-[(4-chlorobenzyl)(methyl)-carbamoyl]benzyl}-4-(4-fluorophenyl)-2-imino-5-oxoimidazolidin-4-yl]-N,N-dimethylbenzamide], for which the midpoint of inhibition, the IC50, lay at 19.9 nM.

The compound `CN(C)C(=O)c1cccc(CN2C(=N)NC(c3ccccc3)(c3ccc(Br)cc3)C2=O)c1` (stereo not shown) [Example 62, 3-{[4-(4-bromophenyl)-2-imino-5-oxo-4-phenylimidazolidin-1-yl]methyl}-N,N-dimethylbenzamide] had an IC50 of 77.3 nM. `CC(C)CC1(c2ccccc2)NC(=N)N(Cc2ccc(C(F)(F)F)c(C(=O)NCc3ccc(C#N)cc3)c2)C1=O` (stereo not shown) [Example 1, N-(4-cyanobenzyl)-5-{[2-imino-4-(2-methylpropyl)-5-oxo-4-phenylimidazolidin-1-yl]methyl}-2-(trifluoromethyl)benzamide] yielded an IC50 of 16 nM.

Turning to `CN(C)C(=O)c1cccc(CN2C(=N)NC(c3ccccc3)(c3ccc(-c4ccccc4)cc3)C2=O)c1` (stereo not shown) [Example 45, 3-[(4-biphenyl-4-yl-2-imino-5-oxo-4-phenylimidazolidin-1-yl)methyl]-N,N-dimethylbenzamide], the IC50 came out at 30.3 nM.
